Experimental data taken from ChEMBL document CHEMBL1145620, “Synthesis and evaluation of sulfamide-type indolizidines as glycosidase inhibitors” (Bioorg Med Chem Lett, 2008).
The source made the active and inactive calls. The rule behind the calls is not given here.

Columns and labels:
[1] = (§1) Inhibition of jack beans alpha-mannosidase; design: species or system Canavalia ensiformis
[2] = system: Cornu aspersum; assay: Inhibition of snail beta-mannosidase
[3] = system: Canavalia ensiformis; assay: as §1
[4] = (§2) Inhibition of yeast alpha-glucosidase; design: species or system Saccharomyces cerevisiae
[5] = biological target: T1, Beta-galactosidase (Bos taurus) (UniProt Q58D55); assay: Inhibition of bovine liver beta-galactosidase
T1 sequence (whole entry): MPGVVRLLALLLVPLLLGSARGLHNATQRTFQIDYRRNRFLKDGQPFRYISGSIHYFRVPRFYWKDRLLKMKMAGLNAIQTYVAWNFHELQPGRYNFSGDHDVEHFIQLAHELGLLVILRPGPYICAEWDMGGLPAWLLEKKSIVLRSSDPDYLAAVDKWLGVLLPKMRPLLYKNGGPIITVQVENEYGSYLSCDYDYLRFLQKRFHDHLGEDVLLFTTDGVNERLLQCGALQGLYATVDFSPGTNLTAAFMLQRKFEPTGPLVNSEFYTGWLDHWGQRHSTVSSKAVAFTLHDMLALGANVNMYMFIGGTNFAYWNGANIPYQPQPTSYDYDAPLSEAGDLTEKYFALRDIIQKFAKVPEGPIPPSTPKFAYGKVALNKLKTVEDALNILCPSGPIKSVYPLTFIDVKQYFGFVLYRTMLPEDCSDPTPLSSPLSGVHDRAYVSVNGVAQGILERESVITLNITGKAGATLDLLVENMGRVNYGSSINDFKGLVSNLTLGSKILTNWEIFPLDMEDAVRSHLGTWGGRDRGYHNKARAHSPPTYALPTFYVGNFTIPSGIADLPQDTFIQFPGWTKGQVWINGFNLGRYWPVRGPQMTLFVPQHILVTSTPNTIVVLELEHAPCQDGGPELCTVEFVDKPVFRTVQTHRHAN

[6] = system: Saccharomyces cerevisiae; assay: as §2
[7] = system: Saccharomyces cerevisiae; assay: Inhibition of yeast isomaltase
[8] = biological target: T2, Uncharacterized protein (Sus scrofa) (UniProt I3LIR5); assay: Inhibition of pig kidney trehalase
T2 sequence (whole entry): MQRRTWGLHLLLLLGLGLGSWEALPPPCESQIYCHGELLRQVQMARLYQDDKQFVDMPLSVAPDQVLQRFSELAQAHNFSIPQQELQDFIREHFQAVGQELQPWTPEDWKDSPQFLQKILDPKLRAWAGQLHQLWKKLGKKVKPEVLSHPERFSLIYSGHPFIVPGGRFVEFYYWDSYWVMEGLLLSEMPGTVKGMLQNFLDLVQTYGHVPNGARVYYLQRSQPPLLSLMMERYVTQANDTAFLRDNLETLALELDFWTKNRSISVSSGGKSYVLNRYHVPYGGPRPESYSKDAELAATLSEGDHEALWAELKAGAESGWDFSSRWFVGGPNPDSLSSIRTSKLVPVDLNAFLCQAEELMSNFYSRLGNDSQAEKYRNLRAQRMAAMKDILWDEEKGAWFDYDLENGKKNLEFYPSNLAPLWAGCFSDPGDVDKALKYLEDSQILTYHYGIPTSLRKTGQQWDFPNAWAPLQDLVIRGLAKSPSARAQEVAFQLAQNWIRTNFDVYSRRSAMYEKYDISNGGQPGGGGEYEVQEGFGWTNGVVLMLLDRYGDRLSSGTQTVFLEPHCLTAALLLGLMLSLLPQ

[9] = system: Prunus dulcis; assay: Inhibition of almonds beta-glucosidase
[10] = system: Penicillium decumbens; assay: Inhibition of Penicillium decumbens naringinase
[11] = biological target: Alpha-galactosidase (Coffea arabica) (UniProt Q5DUH8); assay: Inhibition of green coffee beans alpha-galactosidase
Sequence of Alpha-galactosidase (Coffea arabica) (Q5DUH8 as listed by the source): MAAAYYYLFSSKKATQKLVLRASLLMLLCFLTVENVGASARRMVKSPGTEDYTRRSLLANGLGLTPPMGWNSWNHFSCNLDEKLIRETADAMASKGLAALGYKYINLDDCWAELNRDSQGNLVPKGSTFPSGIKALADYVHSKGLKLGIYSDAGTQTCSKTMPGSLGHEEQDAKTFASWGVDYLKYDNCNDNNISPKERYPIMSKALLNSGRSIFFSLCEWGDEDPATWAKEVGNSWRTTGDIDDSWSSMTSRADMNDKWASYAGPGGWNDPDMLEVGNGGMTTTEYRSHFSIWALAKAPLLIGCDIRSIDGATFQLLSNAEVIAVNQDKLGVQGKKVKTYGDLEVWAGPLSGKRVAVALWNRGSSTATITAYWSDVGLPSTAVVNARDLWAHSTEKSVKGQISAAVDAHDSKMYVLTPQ

[12] = system: Aspergillus niger; assay: Inhibition of Aspergillus niger amyloglucosidase
[13] = Inhibition of bovine liver beta-glucosidase; design: species or system Bos taurus

Row | Activity [2] | Activity [3] | Ki [4] [µM] | SMILES | other results
1 | – | – | – | O=S1(=O)NC[C@@H]2[C@@H](O)[C@H](O)[C@H](O)C(O)N21 (stereo partly specified) | Ki [1]: 150 µM
2 | Active | Active | 40 | O=C1OC[C@@H]2[C@@H](O)[C@H](O)[C@@H](O)[C@@H](O)N12 | –
3 | Active | Active | 4200 | O[C@@H]1[C@@H](O)[C@@H](O)N2C(=S)NC[C@@H]2[C@H]1O | –
4 | inactive | – | – | O=S1(=O)NC[C@@H]2[C@@H](O)[C@H](O)[C@@H](O)C(O)N21 (stereo partly specified) | Ki [1]: 320 µM; Activity [5]: inactive; Activity [6]: inactive; Activity [7]: inactive; Activity [8]: inactive; Activity [9]: inactive; Activity [10]: inactive; Activity [11]: inactive; Activity [12]: inactive
5 | Active | Active | 2.2 | O[C@@H]1[C@@H](O)[C@@H](O)N2C(=S)OC[C@@H]2[C@H]1O | –
6 | Active | Active | – | CCCC/N=C1/OC[C@@H]2[C@@H](O)[C@H](O)[C@@H](O)[C@@H](O)N12 | Ki [13]: 2.2 µM
7 | Active | Active | 5700 | O=C1NC[C@@H]2[C@@H](O)[C@H](O)[C@@H](O)[C@@H](O)N12 | –
